We go through 11 compounds from patent US20130267494A1, “1,4-OXAZEPANE DERIVATIVES” (priority 2010, published 2013).

What all share (assay type): cell-based
Assay [1] concerns the target T1, human dopamine transporter (Homo sapiens, UniProt Q01959).
T1 construct: expressed in transfected cells
Kind of assay: Inhibitory action on human dopamine transporter ([3H]-dopamine uptake in CHO cells). The note with it: CHO, compound 1 μM; relative to inhibitory activity of 100 μM Nomifensine as 100%; read-out: inhibitory rate (%). From the text: SRα promoter contained in pTB1411 described in JP-A-H5-076385 was cleaved with restriction enzyme […](manufactured by TAKARA BIO INC.), blunt-ended, further cleaved with restriction enzyme EcoRI (manufactured by TAKARA BIO INC.), and fragmented. On the other hand, pCI vector was cleaved with restriction enzyme BglII (manufactured by TAKARA BIO INC.), blunt-ended with T4 DNA polymerase, and further cleaved with restriction enzyme EcoRI (manufactured by TAKARA BIO INC.). Into this site was inserted an SRa promoter fragment to give pCI-SRa. Then, pCI-SRa was cleaved with restriction enzyme ClaI (manufactured by TAKARA BIO INC.) and blunt-ended. Into this site was inserted a 1.63 Kb fragment obtained by cleaving pGFP-C1 (manufactured by TOYOBO) with restriction enzyme Bsu36I (manufactured by Daiichi Pure Chemicals Co., Ltd.) followed by blunt-ending, whereby pMSRα neo was prepared. Human dopamine transporter cDNA was amplified from human substantia nigra cDNA library by PCR, and inserted into the pCRII vector (manufactured by Invitrogen). The base sequence was confirmed, modified and subcloned to pMSRα neo, whereby a human dopamine transporter expression plasmid was constructed.
(§1) The monoamine transporter expression plasmids thus prepared were introduced into CHO-K1 cells using FuGENE6 (manufactured by Roche Diagnostics) and according to the attached protocol, whereby each expressing cell was established.
CHO cells stably expressing human dopamine transporter were used for the measurement of human dopamine transporter inhibitory activity. Unless otherwise indicated, these CHO cells were cultured in Ham/F12 medium (Invitrogen) containing 10% fetal bovine serum (MOREGATE).
One day before the assay, the cultured cells that reached almost confluent were rinsed with PBS (Invitrogen), detached with Trypsin/EDTA (Invitrogen), and collected by a centrifugal operation. The obtained cells were counted, and diluted to 3×10^5 cells per 1 mL medium, and the mixture was dispensed to a 96 well white plate (Corning) at 100 μL per well, and cultured overnight in a CO2 incubator.
(§2) On the day of the test, an assay buffer (126 mM NaCl, 4.95 mM KCl, 1.26 mM KH2PO4, 1.26 mM MgSO4, 10 mM HEPES, 2.32 mM CaCl2, 5.52 mM Glucose, 0.5% BSA) was prepared, the medium in the cell plate was removed and the assay buffer was added by 80 μL. A test compound was diluted with the assay buffer to a 10-fold concentration of the final concentration, and the mixture was dispensed to a 96 well polypropylene plate. The diluted test compound was dispensed to the cell plate by 10 μL. [3H]-Dopamine (GE Healthcare) was diluted with the assay buffer to 200 nM, cold dopamine was diluted to 10 μM, and the mixture was dispensed to the cell plate by 10 μL. At 60 min from [3H]-dopamine addition, the assay buffer was removed by suction, and the plate was washed twice with 150 μL of PBS (Invitrogen) per well. Microscinti20 (PerkinElmer) was dispensed to each well by 100 μL, and the mixture was stirred for about 30 min. The radioactivity was measured by TopCount (PerkinElmer).
The inhibitory activity of each compound (10 μM) was calculated as a relative activity value based on the inhibitory activity of 100 μM Nomifensine (dopamine transporter inhibitor) as 100%.
The inhibitory activity of each compound (1 μM) was m calculated as a relative activity value based on the inhibitory activity of 100 μM Nomifensine (dopamine transporter inhibitor) as 100%.

Assay [2] concerns the target T2, human norepinephrine transporter (Homo sapiens, UniProt P23975).
T2 construct: expressed in transfected cells
Kind of assay: Inhibitory action on human norepinephrine transporter ([3H]-norepinephrine uptake in CHO cells). The note with it: CHO, compound 1 μM; relative to inhibitory activity of 10 μM DMI as 100%; read-out: inhibitory rate (%).
Text: (§3) Human serotonin transporter cDNA was amplified from human brain cDNA library by PCR, and inserted into pCRII-TOPO vector (manufactured by Invitrogen). The base sequence was confirmed and modified, and subcloned to pcDNA3.1 vector (manufactured by Invitrogen), whereby a human serotonin transporter expression plasmid was constructed. Human norepinephrine transporter cDNA was purchased from Invitrogen, and the base sequence was confirm and modified, and subcloned to pcDNA3.1 vector, whereby a human norepinephrine transporter expression plasmid was constructed.
as §1
CHO cells stably expressing human norepinephrine transporter were used for the measurement of human norepinephrine transporter inhibitory activity. Unless otherwise indicated, these CHO cells were cultured in Ham/F12 medium (Invitrogen) containing 10% fetal bovine serum (MOREGATE).
The cultured cells that reached almost confluent were rinsed with PBS (Invitrogen), detached with Trypsin/EDTA (Invitrogen), and collected by a centrifugal operation. The obtained cells were counted, and diluted to 3×10^5 cells per 1 mL medium, and the mixture was dispensed to a 96 well white plate (Corning) at 100 μL per well, and cultured overnight in a CO2 incubator.
as §2, with “Then,” for “On the day of the test,”, “[3H]-Norepinephrine” for “[3H]-Dopamine”, “nM,” for “nM, cold dopamine was diluted to 10 μM,”, “45” for “60”, “[3H]-norepinephrine” for “[3H]-dopamine”
The inhibitory activity of each compound (10 μM) was calculated as a relative activity value based on the inhibitory activity of 10 μM DMI (norepinephrine transporter inhibitor) as 100%.
The inhibitory activity of each compound (1 μM) was calculated as a relative activity value based on the inhibitory activity of 10 μM DMI (norepinephrine transporter inhibitor) as 100%.

The target in assay [3] is T3, human serotonin transporter (Homo sapiens, UniProt P31645).
T3 construct: expressed in transfected cells
T3 sequence (P31645 whole entry): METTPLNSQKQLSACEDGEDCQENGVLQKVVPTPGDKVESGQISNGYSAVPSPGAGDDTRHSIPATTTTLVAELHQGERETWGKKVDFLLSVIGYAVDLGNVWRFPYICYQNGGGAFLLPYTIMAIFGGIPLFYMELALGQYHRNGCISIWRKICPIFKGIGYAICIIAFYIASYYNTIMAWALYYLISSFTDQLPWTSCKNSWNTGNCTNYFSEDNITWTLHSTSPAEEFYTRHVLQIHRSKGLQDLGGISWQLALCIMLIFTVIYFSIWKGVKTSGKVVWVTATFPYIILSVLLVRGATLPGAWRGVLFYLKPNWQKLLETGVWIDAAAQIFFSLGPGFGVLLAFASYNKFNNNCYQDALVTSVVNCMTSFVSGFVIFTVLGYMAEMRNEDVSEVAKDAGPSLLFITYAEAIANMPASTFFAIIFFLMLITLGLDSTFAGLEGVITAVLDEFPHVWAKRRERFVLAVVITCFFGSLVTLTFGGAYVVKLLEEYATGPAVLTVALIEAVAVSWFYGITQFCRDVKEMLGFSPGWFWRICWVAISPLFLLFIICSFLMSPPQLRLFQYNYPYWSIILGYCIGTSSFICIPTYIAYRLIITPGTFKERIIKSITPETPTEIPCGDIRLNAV
Kind of assay: Inhibitory action on human serotonin transporter ([3H]-5-hydroxytryptamine uptake in CHO cells). The note with it: CHO, compound 1 μM; relative to inhibitory activity of 10 μM Paroxetine as 100%; read-out: inhibitory rate (%).
Text: as §3, §1
CHO cells stably expressing a human serotonin transporter were used for the measurement of human serotonin transporter inhibitory activity. Unless particularly indicated, these CHO cells were cultured in a Ham/F12 medium (Invitrogen) containing 10% fetal bovine serum (MOREGATE).
The cultured cells that reached almost confluent were rinsed with PBS (Invitrogen), detached with Trypsin/EDTA (Invitrogen), and collected by a centrifugal operation. The obtained cells were counted, and diluted to 3×10^5 cells per 1 mL medium, the mixture was dispensed to a 96 well white plate (Corning) at 100 μL per well, and cultured overnight in a CO2 incubator.
as §2, with “Then,” for “On the day of the test,”, “[3H]-5-Hydroxytryptamine” for “[3H]-Dopamine”, “nM,” for “nM, cold dopamine was diluted to 10 μM,”, “20” for “60”, “[3H]-5-hydroxytryptamine” for “[3H]-dopamine”
The inhibitory activity of each compound (10 μM) was calculated as a relative activity value based on the inhibitory activity of 10 μM Paroxetine (serotonin transporter inhibitor) as 100%.
In addition, the inhibitory activity of each compound (1 μM) was calculated as a relative activity value based on the inhibitory activity of 10 μM Paroxetine (serotonin transporter inhibitor) as 100%.

Structures can show the parent of a compound that is named as a salt.

T2 sequence (P23975 whole entry): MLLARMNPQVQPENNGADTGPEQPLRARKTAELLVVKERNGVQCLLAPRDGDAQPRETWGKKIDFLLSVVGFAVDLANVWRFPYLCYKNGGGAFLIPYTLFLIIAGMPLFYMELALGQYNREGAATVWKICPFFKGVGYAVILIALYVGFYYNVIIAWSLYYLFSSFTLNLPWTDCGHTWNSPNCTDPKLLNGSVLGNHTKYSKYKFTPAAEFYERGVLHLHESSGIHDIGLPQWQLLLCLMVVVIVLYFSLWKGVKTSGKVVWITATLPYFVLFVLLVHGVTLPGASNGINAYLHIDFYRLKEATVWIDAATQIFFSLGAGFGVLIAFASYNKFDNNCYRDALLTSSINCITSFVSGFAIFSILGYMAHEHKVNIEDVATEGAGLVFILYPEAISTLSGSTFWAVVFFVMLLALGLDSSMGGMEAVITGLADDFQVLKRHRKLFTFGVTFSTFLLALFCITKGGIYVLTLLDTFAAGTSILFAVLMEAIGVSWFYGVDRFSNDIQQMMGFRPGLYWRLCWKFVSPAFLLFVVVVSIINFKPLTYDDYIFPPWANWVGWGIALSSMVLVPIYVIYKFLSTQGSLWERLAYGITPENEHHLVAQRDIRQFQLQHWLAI
T1 sequence (Q01959 whole entry): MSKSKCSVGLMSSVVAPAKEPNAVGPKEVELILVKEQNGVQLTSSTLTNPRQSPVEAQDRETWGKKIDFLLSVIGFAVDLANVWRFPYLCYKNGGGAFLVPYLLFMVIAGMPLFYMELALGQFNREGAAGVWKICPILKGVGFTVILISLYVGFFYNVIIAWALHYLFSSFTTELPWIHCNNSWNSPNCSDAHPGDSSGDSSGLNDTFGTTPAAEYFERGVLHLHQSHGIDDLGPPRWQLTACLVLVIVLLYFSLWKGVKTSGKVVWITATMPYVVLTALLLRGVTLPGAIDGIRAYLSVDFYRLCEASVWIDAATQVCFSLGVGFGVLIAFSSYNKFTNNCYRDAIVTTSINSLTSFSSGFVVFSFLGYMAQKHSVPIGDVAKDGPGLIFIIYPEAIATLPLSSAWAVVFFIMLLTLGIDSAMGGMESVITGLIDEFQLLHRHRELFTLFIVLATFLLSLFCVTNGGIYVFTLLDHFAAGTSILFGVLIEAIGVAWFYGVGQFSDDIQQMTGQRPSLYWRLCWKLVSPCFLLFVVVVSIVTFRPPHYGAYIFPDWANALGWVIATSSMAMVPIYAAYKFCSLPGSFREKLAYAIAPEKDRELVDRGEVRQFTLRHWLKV

Take `O=C(Cn1cncn1)NC[C@@H]1OCCNC[C@@H]1c1ccc(Cl)c(Cl)c1` (racemic) [Example 457, N-{[(6RS,7SR)-6-(3,4-dichlorophenyl)-1,4-oxazepan-7-yl]methyl}-2-(1H-1,2,4-triazol-1-yl)acetamide monohydrochloride]: the inhibition at 1 µM in assay [1] was found to be 47%; in assay [2] it was 101%; in assay [3], 27%.
For `OCCOC[C@H]1OCCNC[C@@H]1c1ccc(Cl)c(Cl)c1` (racemic) [Example 495, 2-{[(6RS,7RS)-6-(3,4-dichlorophenyl)-1,4-oxazepan-7-yl]methoxy}ethanol monohydrochloride], in that order: 42%, 105% and 59%.
As to `CS(=O)(=O)NCCC[C@@H]1OCCNC[C@H]1c1ccc(Cl)c(Cl)c1` (racemic) [Example 520, N-{3-[(6RS,7SR)-6-(3,4-dichlorophenyl)-1,4-oxazepan-7-yl]propyl}methanesulfonamide monohydrochloride], the results for the inhibition at 1 µM in assay [1], in assay [2] and in assay [3] were 36%, 105% and 84%, respectively.
As for `O=S(=O)(NC[C@@]1(O)CNCCO[C@@H]1c1ccc(Cl)c(Cl)c1)C(F)F` (racemic) [Example 521, N-{[(6RS,7SR)-7-(3,4-dichlorophenyl)-6-hydroxy-1,4-oxazepan-6-yl]methyl}-1,1-difluoromethanesulfonamide monohydrochloride], the inhibition at 1 µM in assay [1] turned out to be 76%; in assay [2], 104%; in assay [3] it was 84%.
In the case of `CO[C@]1(CNS(C)(=O)=O)CNCCO[C@@H]1c1ccc(Cl)c(Cl)c1` (racemic) [Example 523, N-{[(6RS,7SR)-7-(3,4-dichlorophenyl)-6-methoxy-1,4-oxazepan-6-yl]methyl}methanesulfonamide monohydrochloride], the inhibition at 1 µM in assay [1] turned out to be 2%; in assay [2] it was 91%; in assay [3] it was 64%.
For `CS(=O)(=O)C[C@@]1(O)CNCCO[C@@H]1c1ccc(Cl)c(F)c1` (racemic) [Example 538, (6RS,7RS)-7-(4-chloro-3-fluorophenyl)-6-[(methylsulfonyl)methyl]-1,4-oxazepan-6-ol monohydrochloride], the inhibition at 1 µM in assay [1] stood at 38%; in assay [2], 102%; in assay [3], 91%.
In the case of `O=C(O)c1cccn(C[C@@H]2CNCCO[C@H]2c2ccc(Cl)c(F)c2)c1=O` (racemic) [Example 588, 1-{[(6RS, 7SR)-7-(4-chloro-3-fluoro-phenyl)-1,4-oxazepan-6-yl]methyl}-2-oxo-1,2-dihydro-pyridine-3-carboxylic acid], the inhibition at 1 µM was found to be 12% in assay [1], 104% in assay [2] and 43% in assay [3].
Regarding `Cc1ccc([C@H]2OCCNC[C@@H]2CNS(C)(=O)=O)cc1Cl` (relative stereo) [Example 409, N-{[(6R,7S)-7-(3-chloro-4-methylphenyl)-1,4-oxazepan-6-yl]methyl}methanesulfonamide monohydrochloride], the results for the inhibition at 1 µM in assay [1], in assay [2] and in assay [3] were 24%, 105% and 56%, respectively.
`CO[C@@]1(CNC(C)=O)CNCCO[C@H]1c1ccc(Cl)c(F)c1` (relative stereo) [Example 561, N-{[(6R*,7S*)-7-(4-chloro-3-fluorophenyl)-6-methoxy-1,4-oxazepan-6-yl]methyl}acetamide monohydrochloride (retention time long)]: the inhibition at 1 µM amounted to 1% in assay [1], 98% in assay [2] and 46% in assay [3].
For `CC(=O)N(C)C[C@]1(O)CNCCO[C@H]1c1ccc(Cl)c(F)c1` (relative stereo) [Example 563, N-{[(6R*,7S*)-7-(4-chloro-3-fluorophenyl)-6-hydroxy-1,4-oxazepan-6-yl]methyl}-N-methylacetamide monohydrochloride (retention time short)], in that order: 2%, 103% and 87%.
Regarding `CS(=O)(=O)NC[C@@H]1CNCCO[C@H]1c1ccc(Cl)c(Cl)c1` [Example 34, N-{[(6S,7R)-7-(3,4-dichlorophenyl)-1,4-oxazepan-6-yl]methyl}methanesulfonamide monohydrochloride], the inhibition at 1 µM in assay [1] turned out to be 75%; in assay [2], 96%; in assay [3], 84%.
